Earlier results, collected in patent US20110060000A1, “ACRIDINE ANALOGS IN THE TREATMENT OF GLIOMAS” (priority 2009, published 2011).

Test system: gliomas
Conditions: in association with established anti-glioma medications; cited from earlier work

SMILES: CCN(CC)CCCC(C)Nc1ccnc2cc(Cl)ccc12 (stereo not shown) [Chloroquine]
- patient survival: patient survival was significantly prolonged
